Reference: patent US12479847B2 (DANA-FARBER CANCER INSTITUTE, INC., priority 2019, dated 2025)

Assays:
Test in all cases: KINOMEscan (ScanMAX) kinase profiling
Format in all cases: binding
panel of 468 kinases [1] = target: T1, panel of 468 kinases (Homo sapiens, UniProt P07949, M918T); details: RET(M918T); 1 μM; read-out: % control
T1 construct: purchased KINOMEscan (ScanMAX) service

panel of 468 kinases [2] = target: T2, panel of 468 kinases (Homo sapiens, UniProt Q99759); details: MAP3K3; 1 μM; read-out: % control
T2 construct: purchased KINOMEscan (ScanMAX) service
T2 sequence (Q99759 1-626): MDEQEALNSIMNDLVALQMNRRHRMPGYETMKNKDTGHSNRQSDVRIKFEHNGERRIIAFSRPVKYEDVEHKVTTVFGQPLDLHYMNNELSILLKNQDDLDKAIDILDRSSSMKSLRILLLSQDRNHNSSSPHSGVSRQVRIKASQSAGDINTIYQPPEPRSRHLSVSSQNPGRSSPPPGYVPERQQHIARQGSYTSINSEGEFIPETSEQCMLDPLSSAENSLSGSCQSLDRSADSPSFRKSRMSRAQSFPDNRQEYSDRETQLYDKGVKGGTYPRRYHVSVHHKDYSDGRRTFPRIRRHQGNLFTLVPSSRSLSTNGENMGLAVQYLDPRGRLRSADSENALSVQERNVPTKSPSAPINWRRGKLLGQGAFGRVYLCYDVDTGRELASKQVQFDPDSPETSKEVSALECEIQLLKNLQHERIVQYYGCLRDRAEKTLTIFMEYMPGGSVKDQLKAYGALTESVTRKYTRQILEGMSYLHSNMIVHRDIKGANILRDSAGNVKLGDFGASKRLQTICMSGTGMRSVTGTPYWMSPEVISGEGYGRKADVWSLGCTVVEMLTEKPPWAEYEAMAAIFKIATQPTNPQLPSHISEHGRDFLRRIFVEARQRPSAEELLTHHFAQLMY

panel of 468 kinases [3] = target: T3, panel of 468 kinases (Homo sapiens, UniProt Q15139); details: PRKD1; 1 μM; read-out: % control
T3 construct: purchased KINOMEscan (ScanMAX) service
T3 sequence (Q15139 1-912): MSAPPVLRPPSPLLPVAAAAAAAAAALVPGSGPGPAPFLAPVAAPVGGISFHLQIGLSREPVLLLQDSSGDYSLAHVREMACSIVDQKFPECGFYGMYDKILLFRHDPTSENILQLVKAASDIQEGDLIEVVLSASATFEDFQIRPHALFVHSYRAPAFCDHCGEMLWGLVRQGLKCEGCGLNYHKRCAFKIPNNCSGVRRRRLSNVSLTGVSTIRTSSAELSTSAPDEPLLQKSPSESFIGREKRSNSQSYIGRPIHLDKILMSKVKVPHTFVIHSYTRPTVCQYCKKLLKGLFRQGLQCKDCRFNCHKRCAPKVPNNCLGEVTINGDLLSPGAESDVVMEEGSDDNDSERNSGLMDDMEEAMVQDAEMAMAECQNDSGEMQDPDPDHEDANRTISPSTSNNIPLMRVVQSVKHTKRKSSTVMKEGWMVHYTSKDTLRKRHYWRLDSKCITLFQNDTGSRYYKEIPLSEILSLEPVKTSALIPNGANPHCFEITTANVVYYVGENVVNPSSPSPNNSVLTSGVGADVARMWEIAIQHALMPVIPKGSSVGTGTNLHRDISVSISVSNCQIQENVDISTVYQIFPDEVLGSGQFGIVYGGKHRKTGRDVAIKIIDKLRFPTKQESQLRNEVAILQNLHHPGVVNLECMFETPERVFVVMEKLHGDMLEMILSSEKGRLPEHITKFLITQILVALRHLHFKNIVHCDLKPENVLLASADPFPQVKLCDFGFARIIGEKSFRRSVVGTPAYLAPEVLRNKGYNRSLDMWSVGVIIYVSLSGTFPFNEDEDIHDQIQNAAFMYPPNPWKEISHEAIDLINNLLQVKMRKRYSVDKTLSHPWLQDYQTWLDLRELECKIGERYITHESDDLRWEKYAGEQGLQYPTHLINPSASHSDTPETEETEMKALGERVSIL

panel of 468 kinases [4] = target: T4, panel of 468 kinases (Homo sapiens, UniProt Q9NYY3); details: PLK2; 1 μM; read-out: % control
T4 construct: purchased KINOMEscan (ScanMAX) service
T4 sequence (Q9NYY3 whole entry): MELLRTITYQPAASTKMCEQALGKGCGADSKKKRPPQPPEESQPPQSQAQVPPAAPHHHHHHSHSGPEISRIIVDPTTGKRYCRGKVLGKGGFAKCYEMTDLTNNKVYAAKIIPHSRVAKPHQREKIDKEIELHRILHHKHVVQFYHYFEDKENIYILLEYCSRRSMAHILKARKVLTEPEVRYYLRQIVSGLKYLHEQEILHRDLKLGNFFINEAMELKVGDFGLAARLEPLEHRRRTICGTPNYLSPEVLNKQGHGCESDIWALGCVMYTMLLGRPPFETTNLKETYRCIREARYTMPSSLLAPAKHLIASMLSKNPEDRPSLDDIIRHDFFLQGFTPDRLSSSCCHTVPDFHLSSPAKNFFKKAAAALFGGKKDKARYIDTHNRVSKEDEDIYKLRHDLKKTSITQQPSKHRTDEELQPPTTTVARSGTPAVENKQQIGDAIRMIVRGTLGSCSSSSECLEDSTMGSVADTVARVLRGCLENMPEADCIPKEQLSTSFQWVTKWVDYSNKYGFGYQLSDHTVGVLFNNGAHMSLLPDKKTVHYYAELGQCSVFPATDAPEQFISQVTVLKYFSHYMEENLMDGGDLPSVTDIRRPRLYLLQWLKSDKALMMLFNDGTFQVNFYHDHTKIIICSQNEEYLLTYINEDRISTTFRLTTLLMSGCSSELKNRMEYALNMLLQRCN

panel of 468 kinases [5] = target: T5, panel of 468 kinases (Homo sapiens, UniProt Q00532); details: CDKL1; 1 μM; read-out: % control
T5 construct: purchased KINOMEscan (ScanMAX) service
T5 sequence (Q00532 whole entry): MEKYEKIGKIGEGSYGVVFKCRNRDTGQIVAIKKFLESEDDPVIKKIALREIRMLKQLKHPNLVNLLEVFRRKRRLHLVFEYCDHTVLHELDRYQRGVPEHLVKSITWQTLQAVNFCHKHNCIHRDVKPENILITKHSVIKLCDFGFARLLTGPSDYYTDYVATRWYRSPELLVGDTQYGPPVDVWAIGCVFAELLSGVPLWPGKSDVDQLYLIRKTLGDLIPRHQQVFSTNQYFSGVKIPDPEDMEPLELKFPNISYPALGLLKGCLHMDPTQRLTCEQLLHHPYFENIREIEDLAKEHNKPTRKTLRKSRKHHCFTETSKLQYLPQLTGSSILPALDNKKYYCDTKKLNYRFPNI

panel of 468 kinases [6] = target: T6, panel of 468 kinases (Homo sapiens, UniProt Q6P2M8); details: CAMK1B; 1 μM; read-out: % control
T6 construct: purchased KINOMEscan (ScanMAX) service
T6 sequence (Q6P2M8 whole entry): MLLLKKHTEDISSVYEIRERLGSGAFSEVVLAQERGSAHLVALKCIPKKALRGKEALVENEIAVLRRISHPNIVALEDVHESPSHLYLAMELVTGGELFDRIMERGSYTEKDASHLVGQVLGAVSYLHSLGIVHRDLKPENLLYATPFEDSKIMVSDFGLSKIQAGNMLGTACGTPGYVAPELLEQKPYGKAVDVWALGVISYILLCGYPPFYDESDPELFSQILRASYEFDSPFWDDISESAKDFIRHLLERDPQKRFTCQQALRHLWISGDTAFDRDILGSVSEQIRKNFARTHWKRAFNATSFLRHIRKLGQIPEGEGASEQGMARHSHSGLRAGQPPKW

panel of 468 kinases [7] = target: T7, panel of 468 kinases (Homo sapiens, UniProt O60674); details: JAK2(JH1domain-catalytic); 1 μM; read-out: % control
T7 construct: purchased KINOMEscan (ScanMAX) service
T7 sequence (O60674 whole entry): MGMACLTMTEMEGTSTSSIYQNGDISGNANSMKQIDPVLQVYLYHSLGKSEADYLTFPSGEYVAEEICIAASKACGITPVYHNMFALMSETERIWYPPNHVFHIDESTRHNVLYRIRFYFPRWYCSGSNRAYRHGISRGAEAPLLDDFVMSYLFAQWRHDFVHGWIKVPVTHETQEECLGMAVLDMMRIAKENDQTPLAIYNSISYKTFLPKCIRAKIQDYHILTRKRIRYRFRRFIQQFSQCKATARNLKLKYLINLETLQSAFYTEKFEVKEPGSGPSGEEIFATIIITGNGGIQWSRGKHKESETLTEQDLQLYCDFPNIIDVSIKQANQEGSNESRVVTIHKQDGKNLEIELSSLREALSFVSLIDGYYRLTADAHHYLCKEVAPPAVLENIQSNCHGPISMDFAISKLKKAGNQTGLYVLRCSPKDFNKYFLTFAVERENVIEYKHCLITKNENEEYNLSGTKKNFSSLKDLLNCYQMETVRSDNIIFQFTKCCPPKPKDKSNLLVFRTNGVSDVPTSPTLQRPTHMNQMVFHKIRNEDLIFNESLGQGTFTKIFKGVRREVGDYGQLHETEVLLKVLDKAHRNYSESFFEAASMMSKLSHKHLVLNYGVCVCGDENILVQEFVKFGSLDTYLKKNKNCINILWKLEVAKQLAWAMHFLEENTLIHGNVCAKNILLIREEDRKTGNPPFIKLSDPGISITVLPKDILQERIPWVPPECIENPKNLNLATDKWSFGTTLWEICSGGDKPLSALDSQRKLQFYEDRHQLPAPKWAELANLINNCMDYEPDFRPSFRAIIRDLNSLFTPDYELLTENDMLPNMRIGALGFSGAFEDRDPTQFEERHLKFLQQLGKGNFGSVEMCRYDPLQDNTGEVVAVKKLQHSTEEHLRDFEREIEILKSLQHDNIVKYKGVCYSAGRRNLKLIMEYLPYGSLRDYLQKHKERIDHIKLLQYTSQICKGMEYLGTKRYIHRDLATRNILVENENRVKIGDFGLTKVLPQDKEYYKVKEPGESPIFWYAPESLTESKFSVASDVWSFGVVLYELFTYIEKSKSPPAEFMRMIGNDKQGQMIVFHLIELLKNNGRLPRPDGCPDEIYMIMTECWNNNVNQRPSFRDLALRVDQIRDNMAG

T1 sequence (P07949 29-1114 M918T): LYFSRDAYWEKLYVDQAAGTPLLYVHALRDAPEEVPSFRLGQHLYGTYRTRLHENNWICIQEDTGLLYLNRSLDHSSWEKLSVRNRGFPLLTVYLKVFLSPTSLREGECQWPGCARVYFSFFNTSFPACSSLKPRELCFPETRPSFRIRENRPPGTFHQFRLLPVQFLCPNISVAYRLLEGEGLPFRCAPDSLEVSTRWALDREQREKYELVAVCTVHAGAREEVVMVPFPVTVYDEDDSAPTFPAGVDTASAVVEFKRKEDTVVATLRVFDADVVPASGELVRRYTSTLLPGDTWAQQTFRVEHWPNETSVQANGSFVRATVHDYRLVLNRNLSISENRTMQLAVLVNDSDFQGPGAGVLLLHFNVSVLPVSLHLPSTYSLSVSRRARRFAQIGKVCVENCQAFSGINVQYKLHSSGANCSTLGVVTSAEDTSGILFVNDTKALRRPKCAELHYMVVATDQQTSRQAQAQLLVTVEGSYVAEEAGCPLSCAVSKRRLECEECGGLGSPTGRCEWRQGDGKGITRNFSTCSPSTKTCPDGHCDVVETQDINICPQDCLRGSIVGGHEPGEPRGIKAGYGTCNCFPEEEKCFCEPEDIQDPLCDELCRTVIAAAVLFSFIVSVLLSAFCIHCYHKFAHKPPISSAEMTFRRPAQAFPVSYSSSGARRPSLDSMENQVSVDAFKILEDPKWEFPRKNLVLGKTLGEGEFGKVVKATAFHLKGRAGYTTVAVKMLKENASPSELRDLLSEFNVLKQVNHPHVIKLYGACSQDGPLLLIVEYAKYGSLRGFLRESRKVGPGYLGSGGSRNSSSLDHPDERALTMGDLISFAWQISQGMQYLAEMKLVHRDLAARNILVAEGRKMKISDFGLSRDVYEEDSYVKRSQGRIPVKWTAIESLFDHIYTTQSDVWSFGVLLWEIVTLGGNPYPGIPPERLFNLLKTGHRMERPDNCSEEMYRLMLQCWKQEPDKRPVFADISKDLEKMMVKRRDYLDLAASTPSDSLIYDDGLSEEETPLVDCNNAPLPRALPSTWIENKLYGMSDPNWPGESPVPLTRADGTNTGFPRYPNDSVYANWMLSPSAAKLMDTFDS

Compound | remaining binding at 1 µM (panel of 468 kinases [1]) [%] | remaining binding at 1 µM (panel of 468 kinases [2]) [%] | remaining binding at 1 µM (panel of 468 kinases [3]) [%] | remaining binding at 1 µM (panel of 468 kinases [4]) [%] | remaining binding at 1 µM (panel of 468 kinases [5]) [%] | remaining binding at 1 µM (panel of 468 kinases [6]) [%] | remaining binding at 1 µM (panel of 468 kinases [7]) [%]
CNc1nc(Nc2ccc(S(=O)(=O)N3CCC(N4CCOCC4)CC3)cc2OC)nc2[nH]cc(Cl)c12 [Compound 12, 5-chloro-N2-(2-methoxy-4-((4-morpholinopiperidin-1-yl)sulfonyl)phenyl)-N4-methyl-7H-pyrrolo[2,3-d]pyrimidine-2,4-diamine] | 100 | 100 | 8.8 | 80 | 85 | 95 | 78
CNc1nc(Nc2ccc(C(=O)N3CCC(N4CCOCC4)CC3)c3c2OCO3)nc2[nH]cc(Cl)c12 [Compound 75, (7-((5-chloro-4-(methylamino)-7H-pyrrolo[2,3-d]pyrimidin-2-yl)amino)benzo[d][1,3]dioxol-4-yl)(4-morpholinopiperidin-1-yl)methanone] | 90 | 43 | 7.3 | 82 | 95 | 44 | 24
CNc1nc(Nc2ccc(P3(=O)CCN(C4CCOCC4)CC3)cc2OC)nc2[nH]cc(Cl)c12 [Compound 77, 4-(4-((5-chloro-4-(methylamino)-7H-pyrrolo[2,3-d]pyrimidin-2-yl)amino)-3-methoxyphenyl)-1-(tetrahydro-2H-pyran-4-yl)-1,4-azaphosphinane 4-oxide] | 94 | 100 | 7 | 75 | 87 | 54 | 58
